Reference: patent EP1994944A1, “Polymer conjugate compounds for the inhibition of apoptosis” (Laboratorios SALVAT, S.A., priority 2007, dated 2008)
Marks after values point to notes of the source that are not given here.

What was measured:
[1] = test system: Caspase activity; experiment: Caspase inhibition assay (time-dependent, Ac-DEVD-afc substrate) in cultured cells; format: cell-based; conditions: Saos-2, 50 µM drug-eq., apoptosis induced by doxycyclin 2 µM, vs non-treated cells
Procedure: The time-dependent inhibition of caspase induced by the compounds described in this invention was analyzed. Cell lines were grown in the presence or absence of compounds (50 µM) at different times. Caspase activity was assayed using Saos-2 or U937 cultured cell lines and Ac-DEVD-afc (N-acetyl-Asp-Glu-Val-Asp-afc(7-amino-4-trifluoromethyl coumarin)) as substrate (20 µM). For Saos-2 cell line, apoptosis induction was carried out by the addition of doxycyclin 2 µM; in the case of U937, apoptosis was induced by doxorubicin 0.25 µM. Caspase activity was continuously monitored by the liberation of fluorescent afc using a Cytofluor 4000 fluorimeter (excitation 400 nm; emission 508 nm) for 2 hour. The effect of the compounds on the caspase activity was expressed as the percentage of inhibition in the fluorescence signal of treated cells vs the non-treated cells (control). As control is shown the activity of the previously described conjugate with diglycil linker (named as diglycil)

[2] = biological target: T1, Cathepsin B (Homo sapiens, UniProt P07858); conditions: reference value from Vicent MJ and Pérez-Payá, J. Med. Chem. 2006, 49, 3763-3765, cited from earlier work
[3] = biological target: T1, Cathepsin B; experiment: Degradation on incubation with Cathepsin B: Mw loss and drug release profile from PGA-conjugate; format: in vitro ADME; conditions: Cathepsin B (5 U), pH 6 buffer, 37°C; for 50% drug release t: determined by HPLC; for 50% Mw Loss t: determined by Size Exclusion Chromatography (SEC)
Procedure: Aqueous solutions of I.1 (1 mg/mL) were prepared, and an aliquot (100 µL) was added to a polypropylene tube and made up to 1 mL with water. The pH of the samples was adjusted to 8 with ammonium formate buffer (100 µL, 1 M, pH 8.5), and then CHCl3 (5 mL) was added. Samples were then thoroughly extracted by vortexing (3 x 10 sec). The […] layer was carefully removed and the solvent was evaporated under N2. The dry residue was dissolved in 200 µL of HPLC grade acetonitrile. In parallel the same procedure was carried out for the parent compound II.1 (using 200µL of a 1 mg/mL stock aqueous solution). Addition of 1 mL of acetonitrile to redissolve the product gave a 200 µg/mL stock from which a range of concentrations was prepared (2 to 100 µg/mL). The free amount of drug in the conjugates was determined by HPLC using a Lichrospher® C18 (150 x 3.9 mm) column. Flow rate 1 mL/min using an acetonitrile gradient in aqueous 0.1 % TFA (from 10 to 90% of acetonitrile in 25 min). The retention time was tr = 22.5 min for II.1 (λ = 220 nm) and tr = 22.0 for II.2.
Cathepsin B (5 U) was added last to a solution of 3 mg PGA or PGA-conjugate I in 1 mL of a pH 6 buffer composed by 20 mM sodium acetate, 2 mM EDTA and 5 mM DTT. Incubation was carried out at 37°C. Aliquots (150 µL) were taken at times up to 72 h, immediately frozen in liquid nitrogen, and stored frozen in the dark until assayed by HPLC (analysis of 100 µL aliquots after extraction procedure) and/or GPC (direct analysis of 50 µL aliquots). In control experiments polymers were incubated in buffer alone (without addition of cathepsin B) to assess non-enzymatic hydrolytic cleavage. In addition, free drug (0.75 mg/mL) was also incubated under same conditions and later used as the reference control. HPLC Evaluation of Released Drug (VIIIa, I.1 or I.2) The extraction method described above to determine free drug content of the conjugate samples was also used here. Mass analysis of the released compounds was carried out by MALDI TOF TOF. GPC Evaluation of Polymer Mw loss. The 50 µL aliquots were diluted up to 200 µL with buffer (PBS) and the Mw determined by GPC using PEG standards. Generally degradation profiles for biomedical polymers are obtained under constant sink conditions and the results correlated with mass loss of the polymer. Since PGA polymers are water soluble, the relative peak areas used in the GPC derived molecular weight calculations provided a suitable alternative to indicate the relative amount of the polymer that remained at each timepoint. As the polymer degraded there was a notable loss of I (PGA-conjugate) molecular weight. Therefore, the loss with time of the area under the curve (AUC) for I and PGA (XII) was considered to evaluate the rate of backbone degradation. […]

| Substance | % Caspase Inhibition ([1]; Time 24 h) [%] | % Caspase Inhibition ([1]; Time 48 h) [%] | % Caspase Inhibition ([1]; Time 72 h) [%] | 50% drug release t (h) ([2]; determined by HPLC) | 50% Mw Loss t (h) ([2]; determined by SEC) | 50% drug release t [3] [h] | 50% Mw Loss t [3] [h] |
| --- | --- | --- | --- | --- | --- | --- | --- |
| Poly-L-glutamic acid [2-Amino-pentanoic acid (1-{{[({carbamoyl[2-(2,4-chlorophenyl)ethyl]carbamoyl}methyl)-(3,3-diphenylpropyl)carbamoyl]methyl}-[2-(2,4-dichlorophenyl)ethyl]carbamoyl}-2-methylpropyl)amide] conjugate [diglycil, reference compound] | 67 | 72 | 100 | 30^c h | 60^c h | – | – |
| Poly-L-glutamic acid [2-(2-Amino-3-phenylpropionylamino)-N-{[({carbamoylmethyl-[2-(2,4-dichlorophenyl)ethyl]carbamoyl}methyl)-(3,3-diphenylpropyl)carbamoyl]-methyl}-N-[2-(2,4-dichlorophenyl)ethyl]-3-methylbutyramide] conjugate [I.1] | 23 | 65 | 100 | – | – | 0.7 | 5 |
| Poly-L-glutamic acid [2-Amino-4-methylpentanoic acid (1-{{[({carbamoylmethyl-[2-(2,4-dichlorophenyl)ethyl]carbamoyl}methyl)-(3,3-diphenylpropyl)carbamoyl]methyl}-[2-(2,4-dichlorophenyl)ethyl]carbamoyl}-2-methylpropyl)amide] conjugate [I.2] | 65 | 100 | 100 | – | – | 20 | 30 |
